According to ChEMBL document CHEMBL5223069, “Design, synthesis and biological evaluation of vortioxetine derivatives as new COX-1/2 inhibitors in human monocytes” (Bioorg Med Chem, 2020):
Calls of active or inactive are those of the source. No cut-off for these calls is given here.

Key:
Monocyte [1] = test: Cytotoxicity against human monocytes assessed as reduction in cell viability at 0.01 to 10 uM incubated for 1 to 6 hrs by MTT assay; assay type: toxicity, cell-based; conditions: dose lower 0.01 µM, time lower 1 hrs, dose upper 10 µM, time upper 6 hrs
Monocyte [2] = test: Induction of superoxide anion production in human monocytes assessed as increase in reduced cytochrome C level at 0.0025 to 1 uM incubated for 1 hr; assay type: functional, cell-based; conditions: dose 0.0025-1 µM
Monocyte [3] = test: Induction of TNF-alpha mRNA expression in human monocytes at 7.5 nM incubated for 1 hr by RT-PCR analysis; assay type: functional, cell-based
Monocyte [4] = test: Modulation of LPS-induced IL-1beta mRNA expression in human monocytes at 7.5 nM preincubated for 1 hr followed by LPS stimulation and measured after 30 mins by RT-PCR analysis; assay type: functional, cell-based; conditions: time 1.5 hrs
Monocyte [5] = test: Modulation of LPS-induced IL-10 mRNA expression in human monocytes at 7.5 nM preincubated for 1 hr followed by LPS stimulation and measured after 30 mins by RT-PCR analysis; assay type: functional, cell-based; conditions: time 1.5 hrs
Monocyte [6] = test: Inhibition of PMA-induced oxidative burst in human monocytes at 0.1 to 50 nM preincubated for 1 hr followed by PMA stimulation and measured after 30 mins relative to control; assay type: functional; conditions: dose 0.1-50 nM, time 1.5 hrs
Monocyte [7] = test: Induction of IL-10 mRNA expression in human monocytes at 7.5 nM incubated for 1 hr by RT-PCR analysis; assay type: functional, cell-based
Monocyte [8] = test: Induction of IL-1beta mRNA expression in human monocytes at 7.5 nM incubated for 1 hr by RT-PCR analysis; assay type: functional, cell-based
Monocyte [9] = test: Inhibition of PMA-induced oxidative burst in human monocytes preincubated for 1 hr followed by PMA stimulation and measured after 30 mins; assay type: functional, cell-based
Monocyte [10] = test: Induction of IL-6 mRNA expression in human monocytes at 7.5 nM incubated for 1 hr by RT-PCR analysis; assay type: functional, cell-based
Monocyte [11] = test: Modulation of COX-1 mRNA expression in human monocytes at 7.5 nM incubated for 1 hr by RT-PCR analysis; assay type: functional, cell-based
Monocyte [12] = test: Modulation of LPS-induced TNF-alpha mRNA expression in human monocytes at 7.5 nM preincubated for 1 hr followed by LPS stimulation and measured after 30 mins by RT-PCR analysis; assay type: functional, cell-based; conditions: time 1.5 hrs
[13] = target: Prostaglandin G/H synthase 1 (Homo sapiens) (UniProt P23219); test: Inhibition of human COX-1 at 0.1 to 50 nM by spectrophotometer analysis; conditions: dose 0.1-50 nM
Monocyte [14] = test: Modulation of LPS-induced IL-6 mRNA expression in human monocytes at 7.5 nM preincubated for 1 hr followed by LPS stimulation and measured after 30 mins by RT-PCR analysis; assay type: functional, cell-based; conditions: time 1.5 hrs
Monocyte [15] = test: Modulation of LPS-induced TNF-alpha mRNA expression in human monocytes at 1 uM preincubated for 1 hr followed by LPS stimulation and measured after 30 mins by RT-PCR analysis; assay type: functional, cell-based; conditions: time 1.5 hrs
Monocyte [16] = test: Induction of IL-6 mRNA expression in human monocytes at 1 uM incubated for 1 hr by RT-PCR analysis; assay type: functional, cell-based
[17] = target: T1, Prostaglandin G/H synthase 2 (Homo sapiens) (UniProt P35354); conditions: dose 0.1-50 nM
T1 sequence (whole entry): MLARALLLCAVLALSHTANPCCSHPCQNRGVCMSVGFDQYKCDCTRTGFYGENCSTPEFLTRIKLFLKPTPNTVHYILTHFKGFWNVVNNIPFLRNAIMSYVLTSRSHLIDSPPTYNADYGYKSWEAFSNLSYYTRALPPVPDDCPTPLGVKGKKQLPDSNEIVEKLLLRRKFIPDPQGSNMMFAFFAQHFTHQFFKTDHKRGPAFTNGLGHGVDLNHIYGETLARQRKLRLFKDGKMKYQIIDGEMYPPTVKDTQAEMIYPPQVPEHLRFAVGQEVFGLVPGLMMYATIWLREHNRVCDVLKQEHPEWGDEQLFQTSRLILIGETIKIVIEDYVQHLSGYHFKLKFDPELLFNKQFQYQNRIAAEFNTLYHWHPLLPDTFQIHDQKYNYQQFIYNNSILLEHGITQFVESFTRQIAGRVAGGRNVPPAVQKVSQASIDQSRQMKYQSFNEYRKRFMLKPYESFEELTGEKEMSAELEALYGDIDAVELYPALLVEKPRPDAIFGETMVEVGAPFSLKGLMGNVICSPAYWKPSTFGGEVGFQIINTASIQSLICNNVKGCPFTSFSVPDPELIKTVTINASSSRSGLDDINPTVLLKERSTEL
Description: Inhibition of human COX-2 at 0.1 to 50 nM by spectrophotometer analysis

Monocyte [18] = test: Modulation of LPS-induced IL-1beta mRNA expression in human monocytes at 1 uM preincubated for 1 hr followed by LPS stimulation and measured after 30 mins by RT-PCR analysis; assay type: functional, cell-based; conditions: time 1.5 hrs
Monocyte [19] = test: Modulation of LPS-induced IL-6 mRNA expression in human monocytes at 1 uM preincubated for 1 hr followed by LPS stimulation and measured after 30 mins by RT-PCR analysis; assay type: functional, cell-based; conditions: time 1.5 hrs
Monocyte [20] = test: Induction of IL-10 mRNA expression in human monocytes at 1 uM incubated for 1 hr by RT-PCR analysis; assay type: functional, cell-based
Monocyte [21] = test: Modulation of LPS-induced IL-10 mRNA expression in human monocytes at 1 uM preincubated for 1 hr followed by LPS stimulation and measured after 30 mins by RT-PCR analysis; assay type: functional, cell-based; conditions: time 1.5 hrs
Monocyte [22] = test: Induction of IL-1beta mRNA expression in human monocytes at 1 uM incubated for 1 hr by RT-PCR analysis; assay type: functional, cell-based
Monocyte [23] = test: Induction of TNF-alpha mRNA expression in human monocytes at 1 uM incubated for 1 hr by RT-PCR analysis; assay type: functional, cell-based
Monocyte [24] = test: Downregulation of PMA-induced IL-6 mRNA expression in human monocytes at 7.5 nM preincubated for 1 hr followed by PMA stimulation and measured after 30 mins by RT-PCR analysis; assay type: functional, cell-based; conditions: time 1.5 hrs
Monocyte [25] = test: Inhibition of PMA-induced COX-2 expression in human monocytes at 7.5 nM preincubated for 1 hr followed by PMA stimulation and measured after 30 mins by RT-PCR analysis; assay type: functional, cell-based; conditions: time 1.5 hrs
Monocyte [26] = test: Inhibition of PMA-induced IL-1beta mRNA expression in human monocytes at 7.5 nM preincubated for 1 hr followed by PMA stimulation and measured after 30 mins by RT-PCR analysis; assay type: functional, cell-based; conditions: time 1.5 hrs
Monocyte [27] = test: Downregulation of PMA-induced TNF-alpha mRNA expression in human monocytes at 7.5 nM preincubated for 1 hr followed by PMA stimulation and measured after 30 mins by RT-PCR analysis; assay type: functional, cell-based; conditions: time 1.5 hrs

Prostaglandin G/H synthase 1 (Homo sapiens), sequence (P23219 whole entry): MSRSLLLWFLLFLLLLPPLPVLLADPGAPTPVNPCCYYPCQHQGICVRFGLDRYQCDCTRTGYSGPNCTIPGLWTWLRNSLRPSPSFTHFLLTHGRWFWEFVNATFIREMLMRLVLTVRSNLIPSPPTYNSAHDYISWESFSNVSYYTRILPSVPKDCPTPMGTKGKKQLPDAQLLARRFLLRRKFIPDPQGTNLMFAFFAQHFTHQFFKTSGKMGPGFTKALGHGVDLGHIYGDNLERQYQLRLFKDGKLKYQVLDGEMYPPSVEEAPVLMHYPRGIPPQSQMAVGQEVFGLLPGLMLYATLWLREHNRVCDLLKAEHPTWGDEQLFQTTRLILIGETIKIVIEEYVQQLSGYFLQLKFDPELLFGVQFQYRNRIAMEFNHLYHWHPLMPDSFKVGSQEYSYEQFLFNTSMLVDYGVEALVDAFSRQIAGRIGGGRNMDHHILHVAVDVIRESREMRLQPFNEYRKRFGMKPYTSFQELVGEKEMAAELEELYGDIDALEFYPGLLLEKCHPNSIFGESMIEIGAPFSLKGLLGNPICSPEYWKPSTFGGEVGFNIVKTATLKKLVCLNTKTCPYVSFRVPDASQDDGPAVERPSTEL

IC50 (Monocyte [9])	inhibition [13]	Structure (SMILES)	Activity (Monocyte [1])	Activity (Monocyte [2])	Activity (Monocyte [3])	Activity (Monocyte [4])	Activity (Monocyte [5])	inhibition (INH) (Monocyte [6])	Activity (Monocyte [7])	Activity (Monocyte [8])	Activity (Monocyte [10])	Activity (Monocyte [11])	Activity (Monocyte [12])	Activity (Monocyte [14])	also measured
		Cc1ccc(Sc2ccccc2N2CCN(CCO)CC2)c(C)c1	Non-Toxic	inactive											
0.35 nM	Active	Cc1ccc(Sc2ccccc2N2CCN(CC(=O)O)CC2)c(C)c1	Non-Toxic	inactive	inactive	inactive	inactive	90%	Active	inactive	inactive	inactive	inactive	inactive	
		CCN1CCN(c2ccccc2Sc2ccc(C)cc2C)CC1	Non-Toxic	inactive											
6.3 nM	Active	Cc1ccc(Sc2ccccc2N2CCN(Cc3ccccc3C(F)(F)F)CC2)c(C)c1	Non-Toxic	inactive	inactive	inactive	inactive	80%	inactive	inactive	inactive	inactive	inactive	inactive	
		CS(=O)(=O)c1ccc(C2=C(c3ccccc3)C(=O)OC2)cc1													Activity (Monocyte [15]): inactive; Activity (Monocyte [16]): inactive; inhibition [17]: Active; Activity (Monocyte [18]): inactive; Activity (Monocyte [19]): inactive; Activity (Monocyte [20]): inactive; Activity (Monocyte [21]): inactive; Activity (Monocyte [22]): inactive; Activity (Monocyte [23]): inactive
6.5 nM	Active	Cc1ccc(Sc2ccccc2N2CCN(Cc3ccccc3F)CC2)c(C)c1	Non-Toxic	inactive	inactive	inactive	Active	70%	inactive	inactive	inactive	inactive	inactive	inactive	inhibition [17]: Active; Activity (Monocyte [24]): Active; inhibition (Monocyte [25]): Active
		COc1ccc2c(c1)c(CC(=O)O)c(C)n2C(=O)c1ccc(Cl)cc1													Activity (Monocyte [15]): inactive; Activity (Monocyte [16]): inactive; Activity (Monocyte [18]): inactive; Activity (Monocyte [19]): inactive; Activity (Monocyte [20]): inactive; Activity (Monocyte [21]): inactive; Activity (Monocyte [22]): inactive; Activity (Monocyte [23]): inactive
2.9 nM		Cc1ccc(Sc2ccccc2N2CCNCC2)c(C)c1 [VORTIOXETINE]	Non-Toxic	inactive	inactive	inactive	inactive	90%	inactive	inactive	inactive	inactive	inactive	inactive	inhibition (Monocyte [26]): Active; Activity (Monocyte [27]): Active
		Cc1ccc(Sc2ccccc2N2CCN(S(C)(=O)=O)CC2)c(C)c1	Non-Toxic	inactive											
2.7 nM	Active	Cc1ccc(Sc2ccccc2N2CCN(CC3CCCC3)CC2)c(C)c1	Non-Toxic	inactive	inactive	inactive	inactive	70%	inactive	inactive	inactive	inactive	inactive	inactive	inhibition [17]: Active
		Cc1ccc(S(=O)(=O)N2CCN(c3ccccc3Sc3ccc(C)cc3C)CC2)cc1	Non-Toxic	inactive											
		Cc1ccc(Sc2ccccc2N2CCN(Cc3ccc(Cl)cc3)CC2)c(C)c1	Non-Toxic	inactive											
		CC(=O)N1CCN(c2ccccc2Sc2ccc(C)cc2C)CC1	Non-Toxic	inactive											
